Laboratory results from ChEMBL document CHEMBL3272101, “Antiviral activity of some beta-diketones. 4. Benzyl diketones. In vitro activity against both RNA and DNA viruses” (1978).
Converted amounts (≈) assume the structure as drawn. The source made the active and inactive calls. No cut-off for these calls is given here.

How the values were obtained:
Human alphaherpesvirus 2 = assay: Antiviral activity against Herpesvirus 2; assay type: functional
rhinovirus A2 = assay: Antiviral activity against Human rhinovirus 2; assay type: functional; details: Rhinovirus A
[1] = Antiviral activity against Human rhinovirus 17; assay type: functional, Human rhinovirus B17; details: Rhinovirus B
Equine herpesvirus sp. [2] = assay: Antiviral activity Equine rhinovirus; assay type: functional
Human respirovirus 3 = assay: Antiviral activity against Parainfluenza virus 3; assay type: functional
[3] = system: Respiratory syncytial virus; assay: Antiviral activity against Respiratory syncytial virus; assay type: functional; details: human respiratory syncytial virus
Human alphaherpesvirus 1 [4] = assay: Antiviral activity against Herpes simplex virus 1; assay type: functional
Influenza A virus [5] = assay: Antiviral activity against Influenza A2 Japan 170 virus infected in ferret trachea assessed as reduction in virus yield at 50 ug/ml; assay type: functional; details: A2 Japan 170, Trachea, in Mustela putorius
Influenza A virus [6] = assay: Antiviral activity against Influenza A2 Japan 170 virus infected in ferret trachea assessed as reduction in virus yield at 25 ug/ml; assay type: functional; details: A2 Japan 170, Trachea, in Mustela putorius
Equine herpesvirus sp. [7] = assay: Antiviral activity Equine rhinovirus infected in monkey trachea assessed as log reduction in virus yield at 25 ug/ml; assay type: functional
Equine herpesvirus sp. [8] = assay: Antiviral activity Equine rhinovirus infected in monkey trachea assessed as log reduction in virus yield at 50 ug/ml; assay type: functional
Human alphaherpesvirus 1 [9] = assay: (§1) Antiviral activity against Herper simplex virus 1 Sheely infected in Blue Spruce mouse assessed as host survival rate administered as 10% suspension in 1% gum tragacanth intravaginally, bid using cotton tampons treatment started 4 hrs post-infection for every 24 hrs and second treatment followed 6 hrs later for 7 days measured 14 days post-infection (reference value: 40%); assay type: functional
Human alphaherpesvirus 1 [10] = assay: as §1, with “5%” for “10%”; assay type: functional
Human alphaherpesvirus 1 [11] = assay: as §1, with “time” for “rate”, “days” for “days measured 14 days post-infection”, “>10.7 days)” for “40%)”; assay type: functional
Human alphaherpesvirus 1 [12] = assay: as §1, with “time” for “rate”, “5%” for “10%”, “days” for “days measured 14 days post-infection”, “>10.7 days)” for “40%)”; assay type: functional

## CCC(=O)C(CC1CCC(Cc2ccc(OC)cc2)CC1)C(=O)CC (configuration not stated)
Human alphaherpesvirus 2
  MIC: 6 µg/mL (≈ 17.4 µM)

## CCC(=O)C(Cc1ccc(CCc2ccc(OC)cc2)cc1)C(=O)CC
Human alphaherpesvirus 2
  MIC: 3 µg/mL (≈ 8.51 µM)

## CCC(=O)C(Cc1ccc(/C=C/c2ccccc2)cc1)C(=O)CC
Human alphaherpesvirus 2
  MIC: inactive

## CCC(=O)C(Cc1ccc(OC)cc1)C(=O)CC
Human alphaherpesvirus 2
  MIC: inactive

## CCC(=O)C(Cc1ccc(/C=C/c2ccc(OC)cc2Cl)cc1)C(=O)CC
Human alphaherpesvirus 2
  MIC: 1.5 µg/mL (≈ 3.9 µM)

## CCC(=O)C(Cc1ccc(/C=C/c2ccc(Cl)cc2)cc1)C(=O)CC
Human alphaherpesvirus 2
  MIC: inactive

## CCC(=O)C(Cc1ccc(Cc2ccc(OC)cc2)cc1)C(=O)CC
Human alphaherpesvirus 2
  MIC: 6 µg/mL (≈ 17.7 µM)

## CCC(=O)C(Cc1ccc(/C=C/c2ccc(OC)cc2)cc1)C(=O)CC
Human alphaherpesvirus 2
  MIC: 1.25 µg/mL (≈ 3.57 µM)
Rhinovirus A2
  MIC: 0.2 µg/mL (≈ 0.571 µM)
[1]
  MIC: 0.3 µg/mL (≈ 0.856 µM)
Equine herpesvirus sp. [2]
  MIC: 0.06 µg/mL (≈ 0.171 µM)
Human respirovirus 3
  MIC: 3 µg/mL (≈ 8.56 µM)
[3]
  MIC: 1.5 µg/mL (≈ 4.28 µM)
Human alphaherpesvirus 1 [4]
  MIC: 0.7 µg/mL (≈ 2 µM)
Influenza A virus [5]
  inhibition at 50 µg/mL: 0%
Influenza A virus [6]
  inhibition at 25 µg/mL: 0%
Equine herpesvirus sp. [7]
  LCK: 1.7
Equine herpesvirus sp. [8]
  LCK: 2
Human alphaherpesvirus 1 [9]
  Survival: 60%
Human alphaherpesvirus 1 [10]
  Survival: 50%
Human alphaherpesvirus 1 [11]
  Time: >11.4 days
Human alphaherpesvirus 1 [12]
  Time: >11.3 days

## CCC(=O)C(Cc1ccc(/C=C/c2ccc(OC)cc2Cl)cc1Cl)C(=O)CC
Human alphaherpesvirus 2
  MIC: inactive

## CCC(=O)C(Cc1ccc(/C=C/c2ccc(O)cc2)cc1)C(=O)CC
Human alphaherpesvirus 2
  MIC: 1.5 µg/mL (≈ 4.46 µM)

## CCC(=O)C(C[C@H]1CC[C@@H](COc2ccc(OC)cc2Cl)CC1)C(=O)CC
Human alphaherpesvirus 2
  MIC: 6 µg/mL (≈ 15.2 µM)

## CCC(=O)C(Cc1ccc(Cc2ccc(O)cc2)cc1)C(=O)CC
Human alphaherpesvirus 2
  MIC: 3 µg/mL (≈ 9.25 µM)

## CCC(=O)C(Cc1ccc(/C=C/c2ccc(O)cc2Cl)cc1)C(=O)CC
Human alphaherpesvirus 2
  MIC: 1.5 µg/mL (≈ 4.04 µM)

## CCC(=O)C(Cc1ccc(O)cc1)C(=O)CC
Human alphaherpesvirus 2
  MIC: inactive

## CCC(=O)C(Cc1ccc(Cc2ccccc2)cc1)C(=O)CC
Human alphaherpesvirus 2
  MIC: 6 µg/mL (≈ 19.5 µM)

## CCC(=O)C(Cc1ccc(Oc2ccc(OC)cc2)cc1)C(=O)CC
Human alphaherpesvirus 2
  MIC: 3 µg/mL (≈ 8.81 µM)

## CCC(=O)C(Cc1ccc(C)cc1)C(=O)CC
Human alphaherpesvirus 2
  MIC: inactive

## CCC(=O)C(Cc1ccc(OC)cc1Cl)C(=O)CC
Human alphaherpesvirus 2
  MIC: 50 µg/mL (≈ 177 µM)
